The results in this text go back to US4482554A, “Pharmaceutical compositions containing oxicam derivatives and process for their preparation” (Warner-Lambert Company, priority 1982, dated 1984).

Where a name gives a salt, the structure may show the parent alone. Read-outs that look alike come from different tables or passages of the source.

The nature of series [1]: solubility in water of stoichiometric oxicam salts. Format: physicochemical.
Series [2] can be described thus: stability of solutions / precipitation of active material on storage. It counts as physicochemical. The text has this: Especially in the case of oxicam derivatives of general formula (I), there is, in addition, the serious problem of instability of their solutions. Even when such compounds or the salts thereof have been brought into solution, these show a strong tendency, even after a relatively short time, to deposit particles and again to precipitate out a part of the active material. For injection solutions, this is naturally not acceptable.
There are thereby unexpectedly obtained, which was not to have been foreseen by the expert, highly concentrated solutions with a content of up to 30% and preferably of 10 to 20%, referred to the amount of active material used, which, even after storage for 15 months, display no deposition of active material. It is most surprising that this stability is fully retained even at low temperatures.

Take `Cc1cc(NC(=O)C2=C(O)c3ccccc3S(=O)(=O)N2C)no1`: the solubility in series [1] (stoichiometric salt with methylglucamine, per milliliter of solution, read-out: active material per milliliter of solution) was 49 mg/mL. In addition, in series [2] (salt solution, over wide ranges), the “dependence of degree of precipitation on concentration” value was “not dependent upon the concentration”. Besides, in series [2] (stoichiometric salts, precipitation of active material), the “stability of the solution” value was “unstable and again precipitate out considerable amounts of active material”.
Turning to `Cc1cc(NC(=O)C2=C(O)c3ccccc3S(=O)(=O)N2C)no1` [potassium salts], in series [1] (after 4 months, decreased by precipitation from the solution, 175200 min), the “solubility in water after storage” value was 20 mg/mL. Further, in series [1] (shortly after preparation), the “solubility in water, initial” value is “about 30 mg/ml”.
In the case of `Cc1cc(NC(=O)C2=C(O)c3ccccc3S(=O)(=O)N2C)no1` [sodium salts of isoxicam], the solubility in series [1] (shortly after preparation, read-out: solubility in water, initial) was around 24 mg/mL.
